Key:
Siglec-2 = conditions: cited from earlier work
Siglec-2 Fc chimeras = biological target: T1, Siglec-2 Fc chimeras (Homo sapiens, UniProt P20273); assay: Surface Plasmon Resonance (SPR) assay; assay type: binding
T1 construct: the three N-terminal Ig-domains of Siglec-2 were fused to the C-terminal human IgG1 Fc domain; made in house; host or cells: CHO-Lec1
Procedure: Recombinant Siglec-2 (CD22) Fc-chimeras were expressed in CHO-Lec1 and protein purification was performed as described. The recombinant Siglec-2-Fc chimera, in which the three N-terminal Ig-domains of Siglec-2 were fused to the C-terminal human IgG1 Fc domain, was expressed in CHO-Lec1 cells.
Siglec-Fc chimeras were either captured to anti-Fc antibody-derivatised dextran surface of a Reichert SR7500DC flow cell or directly immobilized by amide coupling. N-acetylneuraminic acid derivatives at various concentrations in PBS were passed over the flow cell at a flow rate of 20 μL/min followed by buffer for dissociation. Specific binding was determined by subtracting the signal obtained from the reference cell (ethanolamine derivatised dextran surface) from the sample cell derivatised with Siglec-2 Fc chimeras. The data were analysed and fitted using the software Scrubber (BioLogic). Corresponding sensorgrams for 7 and 8 are shown in Supplementary Figure 2a,b, respectively.

[1] = test system: T2, Siglec-2 expressed on intact Burkitt's lymphoma (BL) Daudi cells; assay: STD NMR binding to intact BL Daudi cells; set-up: species or system human; conditions: for STD NMR signals in the presence of BL Daudi cells: 0.5 mM ligand, 5.0 × 10^5 BL Daudi cells, 283 K
T2 construct: host or cells: BL Daudi cells
Description: Anti-human Siglec-1 (CD169)-FITC, (clone: 7-239); Siglec-3 (CD33)-FITC, (clone: AC104.3E3); Siglec-5 (CD170)-FITC (clone: 1A5); Siglec-7 (CD328)-VioBlue, (clone: REA214); Siglec-8-FITC, (clone: 7C9) and relevant isotype controls were purchased from Miltenyi Biotech (Bergisch Gladbach, Germany, UE). Mouse anti-human Siglec-2 (CD22) primary antibody (clone RFB4) and the relevant isotype control (clone 1E2.2) were purchased from Merck Group (Darmstadt, Germany, UE). The rat anti-mouse secondary antibody BV421 conjugated was purchased from BD Biosciences (San Jose, CA, USA). Rabbit anti-human Siglec-4 (Myelin Associated Glycoprotein, MAG) was purchased from LifeSpan BioSciences (Seattle, WA, USA). The Donkey anti-rabbit secondary antibody (Clone Poly4064)-BV421 conjugated was purchased from Biolegend (San Diego, CA, USA). Anti-human Siglec-5/Siglec-14-APC (Clone 194128), Siglec-6 (CD327)-APC (Clone 767329), Siglec-9-FITC (Clone 191240); Goat Siglec-10-PE Affinity Purified PAb, Goat Siglec-11-PE Affinity Purified PAb, Goat IgG-PE control, Siglec-16-APC (Clone 706022), and relevant isotypes were purchased from R&D Systems (Minneapolis, MN, USA). BL Daudi and HEK293T cells were incubated with the antibodies for one hour at 4 °C in PBS supplemented with 1% FCS (PBS-FBS) at a ratio of 1 μg of antibody per 1 × 10^6 cells. The cells were washed three times and then suspended in 1 mL of PBS-FBS buffer prior to flow cytometry analysis. Propidium iodide was used at a concentration of 10 ug/mL to differentiate viable from non-viable cells. Secondary antibodies were used according to the suppliers’ instructions. A CyAn ADP Flow Cytometer and Kaluza Flow Cytometry software were used for flow cytometric analysis (Beckman Coulter, Brea, CA, USA). For sorting the BL Daudi cells into Siglec-2^low and Siglec-2^high fractions, antibody staining was achieved as described above. RPMI-1640 medium containing 50% v/v FBS was used for collecting sorted cells to minimise cell damage. Cells were sorted into low and high expressing Siglec-2 groups based on their fluorescence intensity, using MoFlo XDP (Beckman Coulter, CA, USA).
(§1) STD NMR spectra were performed using a Bruker Advance 600 MHz spectrometer, equipped with a 5-mm TXI probe with triple axis gradients at 283 K. 5 × 10^5 BL Daudi and 1 × 10^6 HEK293T cells were washed three times with the optimised deuterated NMR buffer by centrifugation at 1,300 rpm, at room temperature for 5 min and resuspending in 200 μL. The ligand concentration was adjusted to 0.5 mM for all experiments. To determine the binding epitope of the ligands when bound to cells STDD (Saturation Transfer Double Difference) spectra were generated by subtracting STD NMR signals from the ligand-cell complex from the spectrum obtained in the absence of cells or protein.
Mild periodate treatment to disrupt cis-binding was performed following published procedures. BL Daudi cells were resuspended in phosphate buffer (pH 7.4) containing freshly dissolved 2 mM NaIO4 and incubated at 4 °C in the dark. After 30 min, the excess of periodate was quenched by adding 10 μL of 20% deuterated glycerol followed by immediate washing with deuterated buffer optimised for cell NMR experiments. The STD NMR on-resonance frequency was set to −1.00 ppm and the off-resonance to 300 ppm. To ensure the viability of the cells during NMR acquisition 256 scans were chosen resulting in a total acquisition time of 53 min.

[2] = test system: T3, Siglec-2 transiently expressed on HEK293T cells; assay: STD NMR binding to untransfected and Siglec-2 transfected HEK293T cells; set-up: species or system human
T3 construct: host or cells: HEK293T
Procedure: as §1
The full-length codon-optimized coding sequence of Siglec-2 (Uniprot entry P20273-1) cloned in plasmid pD2517 was purchased from DNA2.0 (Menlo Park, CA, USA). Plasmid amplification was performed by transformation into chemically competent E. coli NEB 5-alpha (Ipswich, MA, USA) followed by purification using a NucleoBond XTRA EF Plasmid Purification Kit (Machery Nagel, Duren, Germany, EU). […] Transfection efficiency was monitored by flow cytometry analysis 24 and 48 h post-transfection. […]

[3] = set-up: method as in PMID 10589082; conditions: patients treated with Rituximab; cited from earlier work

T1 sequence (P20273 with tags, fused parts or gaps limits assumed): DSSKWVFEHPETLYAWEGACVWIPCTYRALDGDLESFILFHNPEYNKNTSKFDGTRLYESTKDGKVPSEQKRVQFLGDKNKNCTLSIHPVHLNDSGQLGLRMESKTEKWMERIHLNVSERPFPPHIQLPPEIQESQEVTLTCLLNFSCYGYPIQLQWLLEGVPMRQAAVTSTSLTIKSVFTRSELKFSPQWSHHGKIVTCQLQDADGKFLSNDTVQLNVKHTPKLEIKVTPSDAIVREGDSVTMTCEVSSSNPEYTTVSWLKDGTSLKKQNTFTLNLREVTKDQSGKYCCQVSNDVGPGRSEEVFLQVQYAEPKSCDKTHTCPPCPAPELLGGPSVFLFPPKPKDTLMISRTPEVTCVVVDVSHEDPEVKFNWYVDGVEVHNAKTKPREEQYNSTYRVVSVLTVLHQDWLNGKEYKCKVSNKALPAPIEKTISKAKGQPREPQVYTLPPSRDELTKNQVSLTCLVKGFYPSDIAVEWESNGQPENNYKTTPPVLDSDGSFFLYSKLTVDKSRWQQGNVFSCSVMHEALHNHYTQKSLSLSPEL

For COC1(C(=O)O)CC(O)C(NC(C)=O)C(C(O)C(O)CO)O1 (stereo not drawn) [compound 1, Neu5Acα2Me], the IC50 (Siglec-2; read-out: IC50 value (binding potency for Siglec-2)) is given as 1400 µM.
In the case of COC1(C(=O)O)CC(O)C(NC(C)=O)C(C(O)C(O)CNC(=O)c2ccc(-c3ccccc3)cc2)O1 (stereo not drawn) [compound 2, 9-BPC-Neu5Acα2Me, reference compound], the Kd (Siglec-2 Fc chimeras) is listed as 4.34 µM and the “increase of overall potency by a factor” value (Siglec-2; relative to Neu5Acα2Me (1)) is listed as 224.
With COC1(C(=O)O)CC(NC(=O)c2cccc([N+](=O)[O-])c2)C(NC(C)=O)C(C(O)C(O)CNC(=O)c2ccc(-c3ccccc3)cc2)O1 (stereo not drawn) [compound 3, 9-biphenylcarboxamido-4-meta-nitrophenyl-carboxamido-Neu5Acα2Me] the Kd (Siglec-2 Fc chimeras) was 0.66 µM, the “STD NMR signals in the presence of BL Daudi cells” value (“STD NMR signals in the presence” below) [1] was “strong and significant signals” and the “increase in absolute STD NMR signal intensity, Siglec-2^high versus Siglec-2^low BL Daudi cells” value ([1]; N-acetyl methyl protons, 5.0 × 10^5 sorted cells) was 46%. The “change in STD NMR signal intensities with periodate pretreated BL Daudi cells” value ([1]; cells pre-treated with 2 mM NaIO4, versus untreated cells) was “significant increase”, the “increase in STD NMR signal intensity, Siglec-2 transfected versus untransfected HEK293T cells” value ([2]; 1.0 × 10^6 cells, 283 K) was 75 fold and the “STD NMR signal intensity with non-transfected HEK293T cells” value ([2]; 1.0 × 10^6 untransfected cells) was “Very low signal intensity”. For the same molecule, the “fold higher affinity than 9-BPC-Neu5Acα2Me (2)” value (Siglec-2; relative to 2) was 15 fold.
With CC(=O)N[C@@H]1[C@@H](NC(=O)c2cccc([N+](=O)[O-])c2)[C@H](O)[C@](OCc2cn(CC(=O)O)nn2)(C(=O)O)O[C@H]1[C@H](O)[C@H](O)CNC(=O)c1ccc(-c2ccccc2)cc1 [compound 7] the Kd (Siglec-2 Fc chimeras) was 0.182 µM and the “STD NMR signals in the presence” value [1] was “strong STD NMR signals”.
For COc1cccc(C(=O)N[C@@H]2[C@@H](NC(C)=O)[C@H]([C@H](O)[C@H](O)CNC(=O)c3ccc(-c4ccccc4)cc3)O[C@@](OCc3cn(CC(=O)O)nn3)(C(=O)O)[C@H]2O)c1 [compound 8, 9-BPC-2-(4-carboxymethyl-[1,2,3]triazol-1-yl)-3-hydroxy-4-meta-methoxyphenyl-carboxamido-Neu5Acα2Me], the Kd (Siglec-2 Fc chimeras) was 0.175 µM.
In the case of OC[C@H]1O[C@@](CO)(O[C@H]2O[C@H](CO)[C@@H](O)[C@H](O)[C@H]2O)[C@@H](O)[C@@H]1O [sucrose, reference compound], the “STD NMR signals in the presence” value [1] is reported as “no STD NMR signals can be detected”.
For Rituximab: anti-CD20 antibody, the “patients suffering from severe side effects” value [3] is listed as 80%.
